Test results as given in US20090018106A1, “INTRAVENOUS FORMULATIONS OF PYRIDOXAL 5'- PHOSPHATE AND METHOD OF PREPARATION” (Medicure International Inc., priority 2005, published 2009).
Read-outs that look alike come from different tables or passages of the source.

Assays:
[1] = Once daily intravenous 10 mg/kg P5P for four days, urinary excretion and renal clearance (Example Four); assay type: in vivo, human; conditions: P5P 10 mg/kg iv once daily, 4 days, PAL, mean; for CL renal: human, urine and plasma, iv, 10 mg/kg, read-out: CLR, renal clearance (converted)
Experimental: Data sets analyzed—Six (6) healthy, adult non-smokers were administered intravenously a single daily dose of 10 mg/kb of P5P for four consecutive days and completed the study. In accordance with the study protocol, data from all subjects who completed the study were used for pharmacokinetic and statistical analysis.
Analytical Methods—Plasma and urine samples were used for analysis. P5P, PAL, and PA levels were determined by HPLC/FLD. The quantitation level was 5 ng/mL for plasma and 100 ng/mL for urine. The sample analysis calibration curve range was 5 ng/mL to 5000 ng/mL for plasma and 100 ng/mL to 50,000 ng/mL for urine.
Total and Renal Clearance—Total body clearance was estimated for P5P and was calculated as Dose/AUC0-inf.

[2] = Single intravenous dose escalation of P5P, plasma pharmacokinetics (Examples Two and Three); assay type: in vivo, human; conditions: for Cmax / MRT / Tmax / half-life / AUC(0-inf) / AUC(0-t): both sexes, human; for Cmax / MRT / Tmax / half-life: plasma, iv; for AUC(0-t): read-out: AUC (0-t)
Experimental: A phase one clinical trial was conducted to compare the pharmacokinetics of intravenously administered P5P and orally administered P5P. The trial was a single dose escalation study.
For intravenous administration, P5P was administered by bolus injection under fasting conditions. The following doses of P5P were studied: 1, 5, 10, and 20 mg/kg. 6 subjects were assigned to each dosage group.
P5P, pyridoxal, and 4-pyridoxic acid were evaluated in both plasma and urine over a 24 hour interval following either intravenous or oral dosing. The results are set out below in Tables 2 and 3.
Methodology—This was a single-blind, single-dose escalation, non-randomized, 4-phase, non-crossover study designed to evaluate the safety and […] subjects under fasting conditions and to estimate pharmacokinetic parameters of P5P.
Subjects were assigned to one of the four groups (six subjects per group) under fasting conditions.
Concentrations of pyridoxal-5′-phosphate (P5P) were measured from the plasma samples collected over a 24-bour interval after dosing in each phase.
Pharmacokinetic parameters: AUCt, AUCinf, Cmax, Tmax, Kel, Thalf, Vd, CL, MRT and F were estimated based on pyridoxal-5′-phosphate (P5P) plasma levels for each subject that was in the final data set.
The test product used was a P5P Intravenous Injectable Solution, 50 mg/ml, which was prepared in accordance with the methods of Example 1 (CanAm BioResearch Inc. Canada); Lot No.: LP1459: Manufacturing Date: 12/03. A single 1, 5, 10 or 20 mg/kg dose was given by intravenous injection. The duration of treatment was a single dose.
Secondary Endpoint—Pharmacokinetic (PK) Parameters—Plasma concentrations of pyridoxal-5′-phosphate (P5P) were measured by a validated analytical method. Based on these concentration levels, AUCt, AUCinf, Cmax, Tmax, Kel, Thalf, Vd, CL, MRT and F were estimated.
Statistical Methods—Descriptive statistics were calculated by treatments for the estimated pharmacokinetic parameters.

[3] = Group 1, P5P 1 mg/kg single iv, plasma PAL, mean
[4] = Group 2, P5P 5 mg/kg single iv, plasma PAL, mean
[5] = Group 3, P5P 10 mg/kg single iv, plasma PAL, mean
[6] = Group 4, P5P 20 mg/kg single iv, plasma PAL, mean
[7] = 1 mg/kg, Group 1, P5P 1 mg/kg single iv, plasma PAL, mean
[8] = 5 mg/kg, Group 2, P5P 5 mg/kg single iv, plasma PAL, mean
[9] = 10 mg/kg, Group 3, P5P 10 mg/kg single iv, plasma PAL, mean
[10] = 20 mg/kg, Group 4, P5P 20 mg/kg single iv, plasma PAL, mean
[11] = ln(pK Parameter) = b0 + b1 * ln (Dose)
[12] = ln(pK Parameter) = b0 + b1 * ln (Dose), single iv 1-20 mg/kg

Cc1ncc(CO)c(C=O)c1O [PAL, pyridoxal]
Ae0-t, total amount excreted in urine ([1]; Day 1): 18583712 ng
Ae0-t, total amount excreted in urine ([1]; Day 4): 21011635 ng
CL renal ([1]; Day 1): 14.3 mL/min
CL renal ([1]; Day 4): 12.1 mL/min
Kel [2, 3]: 0.198 h⁻¹
Kel [2, 4]: 0.18 h⁻¹
Kel [2, 5]: 0.167 h⁻¹
Kel [2, 6]: 0.177 h⁻¹
Cmax [2, 7]: 591 ng/mL
MRT [2, 7]: 3.7 h
Tmax [2, 7]: 0.46 h
half-life ([2]; 1 mg/kg, Group 1, P5P 1 mg/kg single iv, plasma PAL, mean, read-out: T½ (converted)): 3.96 h
Cmax [2, 8]: 2480 ng/mL
MRT [2, 8]: 4.4 h
Tmax [2, 8]: 0.71 h
half-life ([2]; 5 mg/kg, Group 2, P5P 5 mg/kg single iv, plasma PAL, mean, read-out: T½ (converted)): 4.25 h
Cmax [2, 9]: 13300 ng/mL
MRT [2, 9]: 3.68 h
Tmax [2, 9]: 0.42 h
half-life ([2]; 10 mg/kg, Group 3, P5P 10 mg/kg single iv, plasma PAL, mean, read-out: T½ (converted)): 4.2 h
Cmax [2, 10]: 25900 ng/mL
MRT [2, 10]: 3.98 h
Tmax [2, 10]: 0.32 h
half-life ([2]; 20 mg/kg, Group 4, P5P 20 mg/kg single iv, plasma PAL, mean, read-out: T½ (converted)): 4.01 h
half-life ([2]; over all single iv doses of P5P (1-20 mg/kg), read-out: apparent elimination half-life (converted)): ~4 h
AUC(0-inf) [2, 3]: 2070 ng·h/mL
AUC(0-t) [2, 3]: 2020 ng·h/mL
AUC(0-inf) [2, 4]: 10400 ng·h/mL
AUC(0-t) [2, 4]: 10100 ng·h/mL
AUC(0-inf) [2, 5]: 39500 ng·h/mL
AUC(0-t) [2, 5]: 39100 ng·h/mL
AUC(0-inf) [2, 6]: 95200 ng·h/mL
AUC(0-t) [2, 6]: 94400 ng·h/mL
Significance of b1, lnAUCi [2, 11]: <0.0001
Significance of b1, lnCmax [2, 11]: <0.0001
Significance of b1, lnMRT [2, 11]: 0.5671
Significance of b1, lnThalf [2, 11]: 0.5604
Coef. for Dose (b1), lnAUCi [2, 12]: 1.30
Coef. for Dose (b1), lnCmax [2, 12]: 1.30
Coef. for Dose (b1), lnMRT [2, 12]: 0.02
Coef. for Dose (b1), lnThalf [2, 12]: 0.03
Intercept (b0), lnAUCi [2, 12]: 0.56
Intercept (b0), lnCmax [2, 12]: −0.72
Intercept (b0), lnMRT [2, 12]: 1.33
Intercept (b0), lnThalf [2, 12]: 1.33
dose relationship of plasma AUCinf and Cmax ([2]; single iv P5P 1-20 mg/kg): increase more than expected based on dose
